Patent US9775844B2, “Heterocyclic compounds and uses thereof” (Infinity Pharmaceuticals, Inc., priority 2014, dated 2017)
pIC50: −log10 of the molar value.

Key:
PI3K α = PI3K α (Homo sapiens (Human), UniProt P42336); assay: PI3-Kinase Promega ADP-Glo Max assay; format: biochemical
PI3K β = PI3K β (Homo sapiens (Human), UniProt P42338); assay: PI3-Kinase Promega ADP-Glo Max assay; format: biochemical
PI3K δ = PI3K δ (Homo sapiens (Human), UniProt O00329); assay: PI3-Kinase Promega ADP-Glo Max assay; format: biochemical
Protocol: Promega ADP-Glo Max assay kit (Cat. No. V7002) was utilized to determine IC50 values for α, β, δ and γ isoforms of human Class I PI3 kinases (Millipore). […] Reactions were incubated at room temperature for 2 hours followed by addition of 25 uL of stop solution. After a 40-minute incubation at room temperature, 50 uL of Promega detection mix was added followed by incubation for 1 hour at room temperature. Plates were then read on Envision plate reader in lunimescence mode. Data was converted to % inhibition using the following equation below:
[formula] where S is the sample luminescence, Pos is a positive control without added PI3K, Neg is the negative control without added compound. Data was then plotted as % inhibition vs compound concentration.

PI3K γ = PI3K γ (Homo sapiens (Human), UniProt P48736); assay: PI3-Kinase Promega ADP-Glo Max assay; format: biochemical
PI3K-δ in RAJI cells = PI3K-δ in RAJI cells (Homo sapiens (Human), UniProt O00329); assay: RAJI p110 δ assay (PI3K-δ selective cellular assay, phospho-AKT); format: cell-based; conditions: phospho-AKT; read-out: RAJI p110 δ assay IC50
[1] = target: PI3K-γ in RAW264.7 macrophages (Mus musculus (Mouse), UniProt Q9JHG7); assay: Raw264.7 p110 γ assay (PI3K-γ selective cellular assay, C5a-stimulated phospho-AKT); format: cell-based; conditions: for pIC50: phospho-AKT, read-out: Raw264.7 p110 γ assay IC50
PI3K-γ in RAW264.7 macrophages, sequence (Q9JHG7 whole entry): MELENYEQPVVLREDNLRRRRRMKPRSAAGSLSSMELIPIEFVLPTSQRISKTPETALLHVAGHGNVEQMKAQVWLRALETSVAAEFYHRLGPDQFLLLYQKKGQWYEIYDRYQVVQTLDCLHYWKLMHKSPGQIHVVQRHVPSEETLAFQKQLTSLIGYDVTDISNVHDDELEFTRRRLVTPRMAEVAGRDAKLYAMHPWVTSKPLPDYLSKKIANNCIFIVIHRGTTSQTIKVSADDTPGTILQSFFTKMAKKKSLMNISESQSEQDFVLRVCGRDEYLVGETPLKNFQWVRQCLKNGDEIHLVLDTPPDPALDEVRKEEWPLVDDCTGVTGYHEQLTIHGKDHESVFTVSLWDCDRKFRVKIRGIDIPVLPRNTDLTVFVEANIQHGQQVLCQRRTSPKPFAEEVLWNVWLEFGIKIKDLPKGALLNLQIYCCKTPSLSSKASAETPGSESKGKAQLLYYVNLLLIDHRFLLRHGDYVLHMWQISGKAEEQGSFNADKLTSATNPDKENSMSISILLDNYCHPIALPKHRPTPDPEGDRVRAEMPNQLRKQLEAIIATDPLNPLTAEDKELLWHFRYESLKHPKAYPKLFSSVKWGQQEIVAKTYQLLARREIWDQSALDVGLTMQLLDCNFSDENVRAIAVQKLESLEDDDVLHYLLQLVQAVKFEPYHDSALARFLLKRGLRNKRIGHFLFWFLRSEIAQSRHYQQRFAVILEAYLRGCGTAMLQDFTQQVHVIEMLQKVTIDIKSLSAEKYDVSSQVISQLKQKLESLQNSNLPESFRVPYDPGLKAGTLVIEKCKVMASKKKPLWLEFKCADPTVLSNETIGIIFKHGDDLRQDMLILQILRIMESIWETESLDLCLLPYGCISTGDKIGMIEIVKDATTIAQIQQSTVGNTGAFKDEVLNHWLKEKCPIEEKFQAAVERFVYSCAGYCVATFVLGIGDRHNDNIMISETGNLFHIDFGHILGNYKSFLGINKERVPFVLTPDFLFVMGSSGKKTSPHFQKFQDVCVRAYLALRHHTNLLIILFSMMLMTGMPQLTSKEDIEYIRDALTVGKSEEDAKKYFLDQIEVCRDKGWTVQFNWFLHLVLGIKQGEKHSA
Description: Briefly, serum-starved RAW264.7 cells are stimulated with a known GPCR agonist C5a. […] Cells can be treated with test compounds prior to, simultaneously with, or subsequent to the stimulation by C5a. RAW 264.7 cells respond to the complement component fragment C5a through activation of the C5a receptor, and the C5a receptor activates macrophages and induces cell migration.

PI3K γ, sequence (P48736 whole entry): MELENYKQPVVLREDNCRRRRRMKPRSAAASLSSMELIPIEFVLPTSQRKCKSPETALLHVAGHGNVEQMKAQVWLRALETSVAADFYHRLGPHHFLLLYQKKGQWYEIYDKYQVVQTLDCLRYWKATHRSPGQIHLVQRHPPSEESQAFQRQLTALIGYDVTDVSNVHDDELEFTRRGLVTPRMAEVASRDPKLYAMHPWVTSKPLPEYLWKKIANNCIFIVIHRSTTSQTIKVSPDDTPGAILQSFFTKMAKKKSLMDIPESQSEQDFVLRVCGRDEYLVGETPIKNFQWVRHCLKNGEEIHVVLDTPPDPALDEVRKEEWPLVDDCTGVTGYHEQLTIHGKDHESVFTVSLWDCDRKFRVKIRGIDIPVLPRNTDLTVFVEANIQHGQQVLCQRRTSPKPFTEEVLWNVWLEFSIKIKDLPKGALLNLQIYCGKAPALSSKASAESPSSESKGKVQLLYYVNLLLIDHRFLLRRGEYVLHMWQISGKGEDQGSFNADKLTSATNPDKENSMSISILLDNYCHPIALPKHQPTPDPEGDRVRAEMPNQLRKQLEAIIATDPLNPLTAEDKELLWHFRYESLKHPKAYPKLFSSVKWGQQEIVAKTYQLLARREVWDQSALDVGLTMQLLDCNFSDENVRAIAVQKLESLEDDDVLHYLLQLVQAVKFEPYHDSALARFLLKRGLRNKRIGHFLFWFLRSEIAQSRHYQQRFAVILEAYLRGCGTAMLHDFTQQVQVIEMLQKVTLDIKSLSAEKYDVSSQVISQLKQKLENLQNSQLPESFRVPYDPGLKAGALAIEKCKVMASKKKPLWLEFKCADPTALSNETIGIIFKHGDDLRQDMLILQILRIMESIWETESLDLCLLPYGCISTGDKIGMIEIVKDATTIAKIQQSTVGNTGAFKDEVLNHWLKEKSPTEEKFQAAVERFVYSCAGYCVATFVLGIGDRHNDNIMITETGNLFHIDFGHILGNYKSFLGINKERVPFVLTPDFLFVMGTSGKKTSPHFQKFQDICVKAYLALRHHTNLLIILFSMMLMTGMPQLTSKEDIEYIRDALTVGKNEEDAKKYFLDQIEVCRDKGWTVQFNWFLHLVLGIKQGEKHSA
PI3K δ, sequence (O00329 whole entry): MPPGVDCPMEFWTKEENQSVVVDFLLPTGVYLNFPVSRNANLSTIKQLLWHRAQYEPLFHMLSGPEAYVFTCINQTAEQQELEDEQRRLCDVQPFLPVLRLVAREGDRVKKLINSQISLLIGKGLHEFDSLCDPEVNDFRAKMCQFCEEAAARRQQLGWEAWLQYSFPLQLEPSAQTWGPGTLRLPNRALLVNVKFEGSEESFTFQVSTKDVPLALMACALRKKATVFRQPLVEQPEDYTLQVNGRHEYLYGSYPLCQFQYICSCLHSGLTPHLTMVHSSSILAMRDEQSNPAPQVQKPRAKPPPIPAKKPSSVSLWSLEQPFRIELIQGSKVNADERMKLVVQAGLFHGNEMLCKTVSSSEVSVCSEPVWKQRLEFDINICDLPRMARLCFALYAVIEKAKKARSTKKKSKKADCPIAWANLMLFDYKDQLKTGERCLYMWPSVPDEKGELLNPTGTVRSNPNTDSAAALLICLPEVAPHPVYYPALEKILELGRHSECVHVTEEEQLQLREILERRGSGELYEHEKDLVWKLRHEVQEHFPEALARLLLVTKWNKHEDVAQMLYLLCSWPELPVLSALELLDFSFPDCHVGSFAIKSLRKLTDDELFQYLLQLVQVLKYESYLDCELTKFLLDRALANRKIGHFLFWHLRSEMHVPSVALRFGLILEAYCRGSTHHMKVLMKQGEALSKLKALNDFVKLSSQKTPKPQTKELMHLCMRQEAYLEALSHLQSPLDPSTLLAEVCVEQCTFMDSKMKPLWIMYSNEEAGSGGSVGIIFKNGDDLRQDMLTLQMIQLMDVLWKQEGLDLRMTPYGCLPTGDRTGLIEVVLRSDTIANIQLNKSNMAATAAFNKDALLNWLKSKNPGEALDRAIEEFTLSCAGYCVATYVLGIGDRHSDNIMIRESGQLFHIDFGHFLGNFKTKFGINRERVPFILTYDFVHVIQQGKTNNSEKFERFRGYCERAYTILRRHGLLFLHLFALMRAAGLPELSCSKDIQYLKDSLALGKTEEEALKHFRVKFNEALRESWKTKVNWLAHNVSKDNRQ
PI3K δ, sequence (P27986 whole entry partner): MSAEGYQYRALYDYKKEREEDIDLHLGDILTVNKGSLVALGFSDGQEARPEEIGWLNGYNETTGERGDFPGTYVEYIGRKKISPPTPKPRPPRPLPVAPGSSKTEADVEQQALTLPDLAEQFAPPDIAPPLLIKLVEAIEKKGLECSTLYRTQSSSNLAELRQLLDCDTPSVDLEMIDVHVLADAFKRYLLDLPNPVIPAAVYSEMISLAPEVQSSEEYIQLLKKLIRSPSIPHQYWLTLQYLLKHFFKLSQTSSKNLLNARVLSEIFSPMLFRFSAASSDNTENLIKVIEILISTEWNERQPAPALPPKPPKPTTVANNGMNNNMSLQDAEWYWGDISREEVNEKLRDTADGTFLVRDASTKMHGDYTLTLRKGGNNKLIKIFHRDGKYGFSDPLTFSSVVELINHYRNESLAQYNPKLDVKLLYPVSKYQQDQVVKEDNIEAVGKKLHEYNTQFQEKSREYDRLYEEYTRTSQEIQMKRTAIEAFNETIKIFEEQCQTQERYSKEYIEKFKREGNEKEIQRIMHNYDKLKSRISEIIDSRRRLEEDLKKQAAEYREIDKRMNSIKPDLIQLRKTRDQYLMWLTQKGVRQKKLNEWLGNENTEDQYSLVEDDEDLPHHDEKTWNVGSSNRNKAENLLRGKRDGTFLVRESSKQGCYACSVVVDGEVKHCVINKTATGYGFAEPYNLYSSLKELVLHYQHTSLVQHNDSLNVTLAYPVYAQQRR
PI3K-δ in RAJI cells, sequence (O00329 whole entry): as the sequence (O00329 whole entry) above
PI3K-δ in RAJI cells, sequence (P27986 whole entry partner): as the sequence (P27986 whole entry partner) above

Q: Cc1nc(C)c(C#Cc2cccc3cc([C@H](C)NC(=O)c4c(N)nn5cccnc45)n(-c4ccccc4)c(=O)c23)s1 [Compound 79] was tested. Which pIC50 (PI3K α) did it give?
A: 5.00 to 5.30

Q: What about the pIC50 (PI3K β) of the same molecule?
A: 5.00 to 5.30

Q: And the pIC50 (PI3K δ)?
A: 5.00 to 5.30

Q: What about the pIC50 (PI3K γ) of the same molecule?
A: 6.00 to 6.30

Q: And the “PI3K δ/PI3K γ IC50 (selectivity)” value (PI3K γ)?
A: X (X = 10 to <50)

Q: And the pIC50 (PI3K-δ in RAJI cells)?
A: 5.00 to 6.00

Q: And the “RAJIδ/Raw264.7 γ IC50 (selectivity)” value [1]?
A: Y (Y = 50 to <850)

Q: What about the pIC50 [1] of the same molecule?
A: 7.30 to 9.00

Q: C#Cc1cccc2nc([C@H](C)NC(=O)c3c(N)nn4cccnc34)n(-c3ccccc3)c(=O)c12 [Compound 46] was tested. Which pIC50 (PI3K α) did it give?
A: 5.00 to 5.30

Q: What about the pIC50 (PI3K β) of the same molecule?
A: 5.30 to 6.00

Q: And the pIC50 (PI3K δ)?
A: 5.30 to 6.00

Q: What about the pIC50 (PI3K γ) of the same molecule?
A: 7.00 to 9.00

Q: What about the “PI3K δ/PI3K γ IC50 (selectivity)” value (PI3K γ) of the same molecule?
A: Y (Y = 50 to <850)

Q: What about the pIC50 (PI3K-δ in RAJI cells) of the same molecule?
A: 7.00 to 9.00

Q: What about the “RAJIδ/Raw264.7 γ IC50 (selectivity)” value [1] of the same molecule?
A: W (W = >1 to <10)

Q: And the pIC50 [1]?
A: 7.30 to 9.00

Q: What does the source list for C[C@H](NC(=O)c1c(N)nn2cccnc12)c1cc2cccc(C#CC(C)(C)C)c2c(=O)n1-c1ccccc1 [Compound 3]?
A: pIC50 (PI3K α): 5.00 to 5.30; pIC50 (PI3K β): 5.00 to 5.30; pIC50 (PI3K δ): 5.00 to 5.30; pIC50 (PI3K γ): 5.30 to 6.00; PI3K δ/PI3K γ IC50 (selectivity) (PI3K γ): W (W = >1 to <10); pIC50 (PI3K-δ in RAJI cells): 5.00 to 6.00; RAJIδ/Raw264.7 γ IC50 (selectivity) [1]: X (X = 10 to <50); pIC50 [1]: 7.00 to 7.30

Q: COc1cnc(C(=O)N[C@@H](C)c2cc3cccc(C#Cc4cnn(C)c4)c3c(=O)n2-c2ccccc2)c(N)n1 [Compound 71] was tested. Which pIC50 (PI3K α) did it give?
A: 5.00 to 5.30

Q: And the pIC50 (PI3K β)?
A: 5.00 to 5.30

Q: And the pIC50 (PI3K δ)?
A: 5.00 to 5.30

Q: And the pIC50 (PI3K γ)?
A: < 5.30

Q: What about the “PI3K δ/PI3K γ IC50 (selectivity)” value (PI3K γ) of the same molecule?
A: V (V = 0.1 to 1)

Q: And the pIC50 (PI3K-δ in RAJI cells)?
A: 5.00 to 6.00

Q: How did the pIC50 (PI3K α) turn out when C[C@H](NC(=O)c1c(N)nn2cccnc12)c1cc2cccc(C#Cc3cnn(C)c3)c2c(=O)n1-c1ccc(F)cc1 [Compound 96] was run?
A: 5.30 to 6.00

Q: What about the pIC50 (PI3K β) of the same molecule?
A: 5.00 to 5.30

Q: And the pIC50 (PI3K δ)?
A: 5.00 to 5.30

Q: What about the pIC50 (PI3K γ) of the same molecule?
A: 7.00 to 9.00

Q: And the “PI3K δ/PI3K γ IC50 (selectivity)” value (PI3K γ)?
A: Y (Y = 50 to <850)

Q: How did the pIC50 (PI3K α) turn out when C[C@H](NC(=O)c1c(N)nn2cccnc12)c1cc2cccc(C#Cc3cncn3C)c2c(=O)n1-c1ccccc1 [Compound 7] was run?
A: 5.00 to 5.30

Q: What about the pIC50 (PI3K β) of the same molecule?
A: 5.00 to 5.30

Q: What about the pIC50 (PI3K δ) of the same molecule?
A: 5.00 to 5.30

Q: What about the pIC50 (PI3K γ) of the same molecule?
A: 6.30 to 7.00

Q: And the “PI3K δ/PI3K γ IC50 (selectivity)” value (PI3K γ)?
A: Y (Y = 50 to <850)

Q: What about the pIC50 (PI3K-δ in RAJI cells) of the same molecule?
A: 6.00 to 6.30

Q: What about the “RAJIδ/Raw264.7 γ IC50 (selectivity)” value [1] of the same molecule?
A: Y (Y = 50 to <850)

Q: And the pIC50 [1]?
A: 7.30 to 9.00

Q: How did the pIC50 (PI3K α) turn out when C[C@H](NC(=O)c1c(N)nn2cccnc12)c1cc2cccc(C#CC(F)(F)F)c2c(=O)n1-c1ccccc1 [Compound 58] was run?
A: 5.00 to 5.30

Q: What about the pIC50 (PI3K β) of the same molecule?
A: 5.00 to 5.30

Q: What about the pIC50 (PI3K δ) of the same molecule?
A: 5.00 to 5.30

Q: What about the pIC50 (PI3K γ) of the same molecule?
A: 5.30 to 6.00

Q: And the “PI3K δ/PI3K γ IC50 (selectivity)” value (PI3K γ)?
A: W (W = >1 to <10)

Q: And the pIC50 (PI3K-δ in RAJI cells)?
A: 6.00 to 6.30

Q: And the “RAJIδ/Raw264.7 γ IC50 (selectivity)” value [1]?
A: V (V = 0.1 to 1)

Q: And the pIC50 [1]?
A: 5.00 to 7.00

Q: How did the pIC50 (PI3K α) turn out when Cc1ncc(C#Cc2cccc3cc([C@H](C)NC(=O)c4c(N)nn5cccnc45)n(-c4ccccc4)c(=O)c23)n1C [Compound 38] was run?
A: 5.00 to 5.30

Q: And the pIC50 (PI3K β)?
A: 5.00 to 5.30

Q: What about the pIC50 (PI3K δ) of the same molecule?
A: 5.00 to 5.30

Q: And the pIC50 (PI3K γ)?
A: 7.00 to 9.00

Q: And the “PI3K δ/PI3K γ IC50 (selectivity)” value (PI3K γ)?
A: Y (Y = 50 to <850)

Q: And the pIC50 (PI3K-δ in RAJI cells)?
A: 6.00 to 6.30

Q: What about the “RAJIδ/Raw264.7 γ IC50 (selectivity)” value [1] of the same molecule?
A: Y (Y = 50 to <850)

Q: And the pIC50 [1]?
A: 7.30 to 9.00

Q: Cc1ccccc1-n1c([C@H](C)NC(=O)c2c(N)nn3cccnc23)cc2cccc(C#Cc3cnn(C)c3)c2c1=O [Compound 101] was tested. Which pIC50 (PI3K α) did it give?
A: 5.00 to 5.30

Q: And the pIC50 (PI3K β)?
A: 5.00 to 5.30

Q: What about the pIC50 (PI3K δ) of the same molecule?
A: 5.00 to 5.30

Q: What about the pIC50 (PI3K γ) of the same molecule?
A: 7.00 to 9.00

Q: And the “PI3K δ/PI3K γ IC50 (selectivity)” value (PI3K γ)?
A: Y (Y = 50 to <850)

Q: With CC[C@H](NC(=O)c1c(N)nn2cccnc12)c1cc2cccc(C#Cc3cnn(C)c3)c2c(=O)n1-c1ccccc1 [Compound 105] as the molecule, how does the pIC50 (PI3K α) read?
A: 5.30 to 6.00

Q: And the pIC50 (PI3K β)?
A: 5.00 to 5.30

Q: And the pIC50 (PI3K δ)?
A: 5.00 to 5.30

Q: And the pIC50 (PI3K γ)?
A: 7.00 to 9.00

Q: What about the “PI3K δ/PI3K γ IC50 (selectivity)” value (PI3K γ) of the same molecule?
A: Y (Y = 50 to <850)

Q: How did the pIC50 [1] turn out when C[C@H](NC(=O)c1c(N)nn2cccnc12)c1cc2cccc(C#Cc3cnn(C)c3)c2c(=O)[nH]1 [Compound 44] was run?
A: 7.00 to 7.30

Q: Cn1cc(C#Cc2cccc3cc(CNC(=O)c4c(N)nn5cccnc45)n(-c4ccccc4)c(=O)c23)cn1 [Compound 107] was tested. Which pIC50 (PI3K α) did it give?
A: 5.00 to 5.30

Q: And the pIC50 (PI3K β)?
A: 5.00 to 5.30

Q: What about the pIC50 (PI3K δ) of the same molecule?
A: 5.00 to 5.30

Q: And the pIC50 (PI3K γ)?
A: 5.30 to 6.00

Q: What about the “PI3K δ/PI3K γ IC50 (selectivity)” value (PI3K γ) of the same molecule?
A: X (X = 10 to <50)

Q: How did the pIC50 (PI3K α) turn out when Cc1ccnc2c(C(=O)N[C@@H](C)c3cc4cccc(C#Cc5cnn(C)c5)c4c(=O)n3-c3ccccc3)c(N)nn12 [Compound 102] was run?
A: 5.00 to 5.30

Q: What about the pIC50 (PI3K β) of the same molecule?
A: 5.00 to 5.30

Q: What about the pIC50 (PI3K δ) of the same molecule?
A: 5.00 to 5.30

Q: And the pIC50 (PI3K γ)?
A: 6.30 to 7.00

Q: What about the “PI3K δ/PI3K γ IC50 (selectivity)” value (PI3K γ) of the same molecule?
A: X (X = 10 to <50)

Q: With Cc1ccn2nc(N)c(C(=O)N[C@@H](C)c3cc4cccc(C#Cc5cnn(C)c5)c4c(=O)n3-c3ccccc3)c2n1 [Compound 106] as the molecule, how does the pIC50 (PI3K α) read?
A: 5.00 to 5.30

Q: And the pIC50 (PI3K β)?
A: 5.30 to 6.00

Q: What about the pIC50 (PI3K δ) of the same molecule?
A: 5.00 to 5.30

Q: What about the pIC50 (PI3K γ) of the same molecule?
A: 7.00 to 9.00

Q: What about the “PI3K δ/PI3K γ IC50 (selectivity)” value (PI3K γ) of the same molecule?
A: Y (Y = 50 to <850)

Q: With C[C@H](NC(=O)c1c(N)nn2cccnc12)c1nc2cccc(C#Cc3cnn(C)c3)c2c(=O)n1-c1ccccc1 [Compound 21] as the molecule, how does the pIC50 (PI3K α) read?
A: 5.00 to 5.30

Q: What about the pIC50 (PI3K β) of the same molecule?
A: 5.00 to 5.30

Q: And the pIC50 (PI3K δ)?
A: 5.00 to 5.30

Q: And the pIC50 (PI3K-δ in RAJI cells)?
A: 6.30 to 7.00

Q: With C#Cc1cccc2nc([C@H](C)NC(=O)c3nccnc3N)n(-c3ccccc3)c(=O)c12 [Compound 47] as the molecule, how does the pIC50 (PI3K α) read?
A: 5.30 to 6.00

Q: And the pIC50 (PI3K β)?
A: 6.30 to 9.00

Q: What about the pIC50 (PI3K δ) of the same molecule?
A: 6.30 to 9.00

Q: What about the pIC50 (PI3K γ) of the same molecule?
A: 7.00 to 9.00

Q: And the “PI3K δ/PI3K γ IC50 (selectivity)” value (PI3K γ)?
A: V (V = 0.1 to 1)
